Positions of bridges follow the written chain, without caps; N, C: chain ends. Residues, ends and D or L forms follow the SMILES beside them.
Tests used:
Assay type in all cases: cell-based
[1] = target: T1, Lymphocyte function-associated antigen 3 (Homo sapiens) (UniProt P19256); test: Inhibition of antiCD58-FITC binding to CD58 in human Caco-2 cells at 180 uM after 1 hr by fluorescence analysis relative to control
T1 sequence (whole entry): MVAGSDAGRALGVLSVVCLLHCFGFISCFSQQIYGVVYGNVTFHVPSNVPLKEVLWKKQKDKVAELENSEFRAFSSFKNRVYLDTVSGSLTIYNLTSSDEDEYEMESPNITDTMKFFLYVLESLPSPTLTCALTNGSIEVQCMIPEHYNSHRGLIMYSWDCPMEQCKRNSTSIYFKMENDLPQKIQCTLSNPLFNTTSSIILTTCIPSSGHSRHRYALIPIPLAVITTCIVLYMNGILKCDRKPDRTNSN

[2] = target: T2, T-cell surface antigen CD2 (Homo sapiens) (UniProt P06729); test: Inhibition of CD2-CD58 interaction assessed as inhibition of CD2 expressing human Jurkat T cell adhesion to CD58 expressing human Caco-2 cells at 90 uM after 45 mins by microplate fluorescence analysis
T2 sequence (whole entry): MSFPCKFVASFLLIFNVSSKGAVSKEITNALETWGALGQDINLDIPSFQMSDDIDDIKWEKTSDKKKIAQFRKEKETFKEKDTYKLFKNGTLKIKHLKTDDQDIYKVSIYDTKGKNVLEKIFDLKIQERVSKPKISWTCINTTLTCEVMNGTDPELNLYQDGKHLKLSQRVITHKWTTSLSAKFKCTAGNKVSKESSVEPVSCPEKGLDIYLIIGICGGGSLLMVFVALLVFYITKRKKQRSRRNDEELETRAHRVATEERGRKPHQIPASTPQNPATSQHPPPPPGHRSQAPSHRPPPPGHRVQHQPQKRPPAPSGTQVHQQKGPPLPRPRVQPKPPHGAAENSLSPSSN

[3] = target: T2, T-cell surface antigen CD2 (Homo sapiens); test: Inhibition of CD2-CD58 interaction assessed as inhibition of CD2 expressing human Jurkat T cell adhesion to CD58 expressing human Caco-2 cells after 45 mins by microplate fluorescence analysis relative to control
Jurkat = test: Inhibition of CD2-CD58 interaction assessed as inhibition of CD2 expressing human Jurkat T cell to CD58 expressing sheep RBC adhesion-associated E-rosette formation at 180 uM after 45 mins by microplate fluorescence analysis
[4] = Cytotoxicity against human Caco-2 cells assessed as cell viability at 180 uM after 2 hrs by MTT assay; settings: read-out: Activity

| SMILES | inhibition [1] | inhibition [2] | Activity [3] | inhibition (Jurkat) | viability at 2 h, 180 µM [4] |
| --- | --- | --- | --- | --- | --- |
| CC[C@H](C)[C@@H]1NC(=O)[C@H](CC(=O)O)NC(=O)[C@H](CC(=O)O)NC(=O)CNC(=O)[C@@H]2CCCN2C(=O)[C@H](CC(=O)O)NC(=O)[C@H](Cc2ccc(O)cc2)NC(=O)[C@H]([C@@H](C)CC)NC(=O)[C@H](CO)NC(=O)[C@@H](N)CCC(=O)NCCCC[C@@H](C(=O)O)NC1=O (H-ESIYDPGDDIK-OH; lactam 1-11) | 45% | 80% | Dose-dependent effect | 60% | > 80% |
| CC[C@H](C)[C@@H]1NC(=O)[C@H](CC(=O)O)NC(=O)[C@H](CC(=O)O)NC(=O)CNC(=O)[C@@H]2CCCN2C(=O)[C@H](CC(=O)O)NC(=O)[C@H](Cc2ccc(O)cc2)NC(=O)[C@H]([C@@H](C)CC)NC(=O)[C@H](CCC(=O)O)NC(=O)[C@H](CCCCN)NC1=O |  |  |  |  | > 80% |
| CC[C@H](C)[C@@H]1NC(=O)[C@H](CC(=O)O)NC(=O)[C@@H](CC(=O)O)NC(=O)CNC(=O)[C@@H]2CCCN2C(=O)[C@H](CC(=O)O)NC(=O)[C@H](Cc2ccc(O)cc2)NC(=O)[C@H]([C@@H](C)CC)NC(=O)[C@H](CCC(=O)O)NC(=O)[C@H](CCCCN)NC1=O |  | 80% | Dose-dependent effect | 60% |  |
| CC[C@H](C)[C@@H]1NC(=O)[C@H](CC(=O)O)NC(=O)[C@H](CC(=O)O)NC(=O)CNC(=O)[C@@H]2CCCN2C(=O)[C@H](CC(=O)O)NC(=O)[C@H](Cc2ccc(O)cc2)NC(=O)[C@H]([C@@H](C)CC)NC(=O)[C@@H](N)CCC(=O)NCCCC[C@@H](C(=O)O)NC1=O (H-EIYDPGDDIK-OH; lactam 1-10) |  | 80% | Dose-dependent effect | 50% | > 80% |
| CC[C@H](C)[C@@H]1NC(=O)[C@H](CO)NC(=O)[C@@H](N)C(C)(C)SSC[C@@H](C(=O)O)NC(=O)[C@@H](CCCCN)NC(=O)[C@H]([C@@H](C)CC)NC(=O)[C@H](CC(=O)O)NC(=O)[C@H](CC(=O)O)NC(=O)CNC(=O)[C@@H]2CCCN2C(=O)[C@H](CC(=O)O)NC(=O)[C@H](Cc2ccc(O)cc2)NC1=O |  | 30% |  | 20% | > 80% |
